Measured values taken from US20180055032A1, “ODORS FOR PSYLLID TRAPPING, REPELLING AND CONTROL” (The Regents of the University of California, priority 2011, published 2018).

Legend:
Type in all cases: cell-based, Diaphorina citri
[1] = test system: neuron 7A (rhinarial plate on flagellomere 7); assay: single-sensillum electrophysiology, odor response of neuron 7A; conditions: for odor response (frequency of action potentials during stimulus minus baseline), 7A: Table 1, odor diluted to 1%, 50 μL in cartridge; for response to ultra-prolonged activators, 7A: Table 3, 10^−2 in paraffin oil, 50 μL, odor puff of 0.5 sec; on all read-outs here: key: 0, no response; +, >50 spikes/second; ++, >100 spikes/second; +++, >150 spikes/second
[2] = test system: neuron 7C (rhinarial plate on flagellomere 7); assay: single-sensillum electrophysiology, odor response of neuron 7C; conditions: for odor response (frequency of action potentials during stimulus minus baseline), 7C: Table 1, odor diluted to 1%, 50 μL in cartridge; for response to ultra-prolonged activators, 7C: Table 3, 10^−2 in paraffin oil, 50 μL, odor puff of 0.5 sec
[3] = test system: neuron 7B (rhinarial plate on flagellomere 7); conditions: for odor response (frequency of action potentials during stimulus minus baseline), 7B: Table 1, odor diluted to 1%, 50 μL in cartridge; for response to ultra-prolonged activators, 7B: Table 3, 10^−2 in paraffin oil, 50 μL, odor puff of 0.5 sec; on response to ultra-prolonged activators, 7B: key: 0, no response; +, >50 spikes/second; ++, >100 spikes/second; +++, >150 spikes/second
[4] = test system: neuron 2A (rhinarial plate on flagellomere 2); assay: single-sensillum electrophysiology, odor response of neuron 2A; conditions: for odor response (frequency of action potentials during stimulus minus baseline), 2A: Table 1, odor diluted to 1%, 50 μL in cartridge; for response to ultra-prolonged activators, 2A: Table 3, 10^−2 in paraffin oil, 50 μL, odor puff of 0.5 sec; on all read-outs here: key: 0, no response; +, >50 spikes/second; ++, >100 spikes/second; +++, >150 spikes/second
[5] = test system: neuron 4C (rhinarial plate on flagellomere 4); assay: single-sensillum electrophysiology, odor response of neuron 4C; conditions: for odor response (frequency of action potentials during stimulus minus baseline), 4C: Table 1, odor diluted to 1%, 50 μL in cartridge; for response to ultra-prolonged activators, 4C: Table 3, 10^−2 in paraffin oil, 50 μL, odor puff of 0.5 sec; on response to ultra-prolonged activators, 4C: key: 0, no response; +, >50 spikes/second; ++, >100 spikes/second; +++, >150 spikes/second
[6] = test system: neuron 6C (rhinarial plate on flagellomere 6); assay: single-sensillum electrophysiology, odor response of neuron 6C; conditions: for odor response (frequency of action potentials during stimulus minus baseline), 6C: Table 1, odor diluted to 1%, 50 μL in cartridge; for response to ultra-prolonged activators, 6C: Table 3, 10^−2 in paraffin oil, 50 μL, odor puff of 0.5 sec
[7] = test system: neuron 4A (rhinarial plate on flagellomere 4); assay: single-sensillum electrophysiology, odor response of neuron 4A; conditions: for odor response (frequency of action potentials during stimulus minus baseline), 4A: Table 1, odor diluted to 1%, 50 μL in cartridge; for response to ultra-prolonged activators, 4A: Table 3, 10^−2 in paraffin oil, 50 μL, odor puff of 0.5 sec
[8] = test system: neuron 4B (rhinarial plate on flagellomere 4); conditions: for odor response (frequency of action potentials during stimulus minus baseline), 4B: Table 1, odor diluted to 1%, 50 μL in cartridge; for response to ultra-prolonged activators, 4B: Table 3, 10^−2 in paraffin oil, 50 μL, odor puff of 0.5 sec
[9] = test system: neuron 6A (rhinarial plate on flagellomere 6); assay: single-sensillum electrophysiology, odor response of neuron 6A; conditions: for odor response (frequency of action potentials during stimulus minus baseline), 6A: Table 1, odor diluted to 1%, 50 μL in cartridge; for response to ultra-prolonged activators, 6A: Table 3, 10^−2 in paraffin oil, 50 μL, odor puff of 0.5 sec
[10] = test system: neuron 2B (rhinarial plate on flagellomere 2); assay: single-sensillum electrophysiology, odor response of neuron 2B; conditions: for odor response (frequency of action potentials during stimulus minus baseline), 2B: Table 1, odor diluted to 1%, 50 μL in cartridge; for response to ultra-prolonged activators, 2B: Table 3, 10^−2 in paraffin oil, 50 μL, odor puff of 0.5 sec
[11] = test system: neuron 2C (rhinarial plate on flagellomere 2); assay: single-sensillum electrophysiology, odor response of neuron 2C; conditions: for odor response (frequency of action potentials during stimulus minus baseline), 2C: Table 1, odor diluted to 1%, 50 μL in cartridge; for response to ultra-prolonged activators, 2C: Table 3, 10^−2 in paraffin oil, 50 μL, odor puff of 0.5 sec
[12] = test system: neuron 6B (rhinarial plate on flagellomere 6); assay: single-sensillum electrophysiology, odor response of neuron 6B; conditions: for odor response (frequency of action potentials during stimulus minus baseline), 6B: Table 1, odor diluted to 1%, 50 μL in cartridge; for response to ultra-prolonged activators, 6B: Table 3, 10^−2 in paraffin oil, 50 μL, odor puff of 0.5 sec

Compound	odor response (frequency of action potentials during stimulus minus baseline), 7A [1]	odor response (frequency of action potentials during stimulus minus baseline), 7C [2]	odor response (frequency of action potentials during stimulus minus baseline), 7B [3]	odor response (frequency of action potentials during stimulus minus baseline), 2A [4]	odor response (frequency of action potentials during stimulus minus baseline), 4C [5]	odor response (frequency of action potentials during stimulus minus baseline), 6C [6]	odor response (frequency of action potentials during stimulus minus baseline), 4A [7]	odor response (frequency of action potentials during stimulus minus baseline), 4B [8]	odor response (frequency of action potentials during stimulus minus baseline), 6A [9]	odor response (frequency of action potentials during stimulus minus baseline), 2B [10]	odor response (frequency of action potentials during stimulus minus baseline), 2C [11]	odor response (frequency of action potentials during stimulus minus baseline), 6B [12]	further results
CC(C)=CCCC(C)=CC=O [citral]	0	0	0	0	0	0	0	0	0	0	++ (++, >100 spikes/second)	0	
CCC/C=C\CO [Z2-hexanol]	0	0	0	0	0	0	0	+ (+, >50 spikes/second)	0	0	0	+ (+, >50 spikes/second)	
CCCCCCCCC=O [nonanal]	0	++ (++, >100 spikes/second)	0	0	0	0	0	++ (++, >100 spikes/second)	0	0	0	++ (++, >100 spikes/second)	response to ultra-prolonged activators, 7A [1]: 0; response to ultra-prolonged activators, 7C [2]: ++ (++, >100 spikes/second); response to ultra-prolonged activators, 7B [3]: 0; response to ultra-prolonged activators, 2A [4]: 0; response to ultra-prolonged activators, 4C [5]: 0; response to ultra-prolonged activators, 6C [6]: 0; response to ultra-prolonged activators, 4A [7]: 0; response to ultra-prolonged activators, 4B [8]: ++ (++, >100 spikes/second); response to ultra-prolonged activators, 6A [9]: 0; response to ultra-prolonged activators, 2B [10]: 0; response to ultra-prolonged activators, 2C [11]: 0; response to ultra-prolonged activators, 6B [12]: ++ (++, >100 spikes/second)
CCCCCCO [1-hexanol]	0	0	0	0	0	0	0	+ (+, >50 spikes/second)	0	0	0	+ (+, >50 spikes/second)	response to ultra-prolonged activators, 7A [1]: 0; response to ultra-prolonged activators, 7C [2]: 0; response to ultra-prolonged activators, 7B [3]: 0; response to ultra-prolonged activators, 2A [4]: 0; response to ultra-prolonged activators, 4C [5]: 0; response to ultra-prolonged activators, 6C [6]: 0; response to ultra-prolonged activators, 4A [7]: 0; response to ultra-prolonged activators, 4B [8]: + (+, >50 spikes/second); response to ultra-prolonged activators, 6A [9]: 0; response to ultra-prolonged activators, 2B [10]: 0; response to ultra-prolonged activators, 2C [11]: 0; response to ultra-prolonged activators, 6B [12]: + (+, >50 spikes/second)
Cc1ccc(C(C)C)cc1 [p-cymene]	0	0	0	0	0	0	0	+++ (+++, >150 spikes/second)	0	0	0	++ (++, >100 spikes/second)	
CCCC(C)=O [2-pentanone]	0	0	0	0	0	0	0	+ (+, >50 spikes/second)	0	0	0	+ (+, >50 spikes/second)	
C=CC(=C)CCC=C(C)C [myrcene]	0	0	0	0	0	0	0	+ (+, >50 spikes/second)	0	0	++ (++, >100 spikes/second)	+ (+, >50 spikes/second)	
CC1=CC=C(C(C)C)CC1 [α-terpinene]	0	0	0	0	0	0	0	++ (++, >100 spikes/second)	0	0	0	++ (++, >100 spikes/second)	
